In patent US20250051361A1, “5,6,7,8-TETRAHYDRO-2,6-NAPHTHYRIDINE DERIVATIVES AS CANCER THERAPEUTICS” (VRise Therapeutics, Inc., priority 2021, published 2025) one finds IC50 and inhibition data, which are given here for four molecules.

Structures can show the parent of a compound that is named as a salt. Some results are limits rather than exact numbers.

One assay addresses T1, human KRAS G12D protein (Homo sapiens, UniProt P01116, G12D).
T1 construct: A human KRAS G12D protein (corresponding to amino acid 2-169)
The experiment in a line: HTRF-based nucleotide exchange assay detecting GTP binding to K-Ras. The class given is biochemical. To be noted: human KRAS G12D (amino acid 2-169), SOS1 mediated exchange. The protocol: Test 3: Nucleotide Exchange Assay HTRF-based nucleotide exchange assay detecting GTP binding to K-Ras A human KRAS G12D protein (corresponding to amino acid 2-169) was mixed with a a-GST Tb antibody (1.5× solution) and 10 uL of the solution was added to the reaction wells). Compounds (each 10 concentrations or any other concentration of choice at 3-fold or fold of choice for serial dilutions with a starting concentration of […] or or 100 μM or 50 uM) were then delivered to the reaction wells using acoustic dispenser (Echo, Labcyte) and incubated with the Kras/aGST-Tb antibody for 1-hour at room temperature. […] HTRF based SOS1 mediated exchange of GDP to GTP was measured on a microplate reader […] (BMG Labtech) at an excitation wavelength of 337 nm and emission wavelengths of 665 and 620 nm. No-SOS1 reaction or highest control compound concentration was used as blank and % inhibition was calculated and/or IC50 was determined using Sigmoidal dose response (variable slope) equation.
On the technique in general: In TR-FRET formats the signal depends on donor and acceptor labels being close together.

For the next assay, the system named is HPAC cells. Kind of assay: In vitro cell proliferation assay in HPAC cell line. The class given is cell-based. The settings on record: Homo sapiens; for inhibition at 3 µM: TC1: Test Concentration of 3 uM; for inhibition at 10 µM: TC2: Test Concentration of 10 uM. The protocol: (§1) Test 1: In Vitro Cell Proliferation Assay in HPAC and AGS Cell Lines
(§2) Growth inhibition assays was carried out using 10% FBS supplemented media. Cells are to be seeded at a concentration of 2000-3,000 cells/well in a 96-well plate. Test compounds at a concentration range from 0.1 to 30 uM will be added after 24 hours. Growth will be assessed using the MTT or CCK-8 kit for measuring reduction at 0 h (prior to the addition of the test compound) and 72 to 96 hours after the addition of test compound. Absorbance read on a BIO-RAD iMark Microplate or any equivalent micloplate reader at a wavelength of 450 nm to 600 nm. Data will be analyzed and percent inhibition due to the test compound compared to the control is calculated accordingly.

In a further assay the test system is AGS cells. The experiment in a line: In vitro cell proliferation assay in AGS cell line. The settings on record: Homo sapiens; for inhibition at 3 µM: TC1: Test Concentration of 3 uM; for inhibition at 10 µM: TC2: Test Concentration of 10 uM. The class given is cell-based. The protocol: as §1, §2
For another assay, the system named is CT-26. The experiment in a line: In vitro cell proliferation assay in KRASG12 cell lines (CT-26). The class given is cell-based. The settings on record: Mus musculus, CT26; Cell Line CT-26; Cell Titer-Glo, 3 day (2D) or 7 day (3D). The protocol: Test 2: In Vitro Cell Proliferation Assay in KRASG12 Cell lines Growth inhibition assays was carried out using 10% FBS supplemented media. Cells were seeded at a desired concentration of 1000-2,000 cells/well in a well plate with desired number of wells. Test compounds at a desired concentration range were added after 24 hours. Growth was assessed using the Cell Titer-Glo (CTG, Cell Signaling) for measuring reduction at 0 h (prior to the addition of the test compound) and 3 day (2D) or 7 day (3D) after the addition of test compound. Absorbance read on a BIO-RAD iMark Microplate or any equivalent microplate reader at a predetermined a wavelength for e.g. 450 nm. Data was be analysed and percent inhibition and/or IC50 for each test compound is calculated accordingly.
For orientation: Cellular ATP, detected with luciferase, serves as a proxy for viable cell number.

T1 sequence (P01116 2-169 isoform P01116-2 G12D): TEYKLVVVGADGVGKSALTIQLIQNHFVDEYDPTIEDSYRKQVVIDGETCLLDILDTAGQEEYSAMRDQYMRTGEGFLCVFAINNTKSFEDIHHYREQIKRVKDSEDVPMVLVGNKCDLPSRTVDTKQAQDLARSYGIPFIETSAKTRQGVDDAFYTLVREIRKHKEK

Consider `CN1CCC[C@H]1COc1nc(N2CC3CCC(C2)N3)c2c(c1C#N)CN(c1cccc3cccc(Cl)c13)CC2` [Ex 16, 1-(3,8-diazabicyclo[3.2.1]octan-3-yl)-6-(8-chloronaphthalen-1-yl)-3-(((S)-1-methylpyrrolidin-2-yl)methoxy)-5,6,7,8-tetrahydro-2,6-naphthyridine-4-carbonitrile Hydrochloride], for which the IC50 (usually the concentration that gives 50% inhibition) was 200 to 1000 nM at human KRAS G12D protein and less than 2500 nM with CT-26. Also, the inhibition at 3 µM in the assay on HPAC cells and in the assay with AGS cells was 50 to 75% each time. The results for the inhibition at 10 µM in the assay on HPAC cells and with AGS cells were 75 to 100% and 50 to 75%, respectively.
For `N#Cc1c(OCC23CCCN2C[C@H](F)C3)nc(N2CC3CCC(C2)N3)c2c1CN(c1cccc3cccc(Cl)c13)CC2` (stereo partly drawn) [Ex 17, 1-(3,8-diazabicyclo[3.2.1]octan-3-yl)-6-(8-chloronaphthalen-1-yl)-3-(((2R)-2-fluorotetrahydro-1H-pyrrolizin-7a(5H)-yl)methoxy)-5,6,7,8-tetrahydro-2,6-naphthyridine-4-carbonitrile Hydrochloride], the half-inhibitory concentration (IC50) lay within 25 to 50 nM on human KRAS G12D protein and 2500 to 5000 nM in the assay with CT-26. Besides, the inhibition at 3 µM in the assay on HPAC cells and in the assay on AGS cells was 25 to 50% in each case. Moreover, the inhibition at 10 µM with HPAC cells and with AGS cells was 75 to 100% throughout.
On human KRAS G12D protein, `N#Cc1c(OCC23CCCN2C[C@H](F)C3)nc(N2CC3CCC(C2)N3)c2c1CN(Cc1ccccc1)CC2` (stereo partly drawn) [Ex 19, 6-benzyl-1-(3,8-diazabicyclo[3.2.1]octan-3-yl)-3-(((2R)-2-fluorotetrahydro-1H-pyrrolizin-7a(5H)-yl)methoxy)-5,6,7,8-tetrahydro-2,6-naphthyridine-4-carbonitrile Hydrochloride] showed an IC50 of more than 1000 nM. Also, in the assay with HPAC cells, the inhibition (as a rule, the percentage by which the read-out fell short of the control) at 3 µM was not above 25% and the inhibition at 10 µM was 75 to 100%. In the assay on AGS cells, the inhibition at 3 µM was in the range of 25 to 50% and the inhibition at 10 µM was 50 to 75%.
For `N#Cc1c(OCC23CCCN2C[C@H](F)C3)nc(N2CC3CCC(C2)N3)c2c1CN(c1cc(O)cc3ccccc13)CC2` (stereo partly drawn) [Ex 25, 1-(3,8-diazabicyclo[3.2.1]octan-3-yl)-3-(((2R)-2-fluorotetrahydro-1H-pyrrolizin-7a(5H)-yl)methoxy)-6-(3-hydroxynaphthalen-1-yl)-5,6,7,8-tetrahydro-2,6-naphthyridine-4-carbonitrile Hydrochloride], the values for the half-inhibitory concentration (IC50) at human KRAS G12D protein and with CT-26 were less than 25 nM and 5000 to 10000 nM, respectively. Also, the inhibition at 3 µM in the assay with HPAC cells is 25 to 50%; in the assay on AGS cells it was 75 to 100%. Moreover, the inhibition at 10 µM in the assay with HPAC cells and in the assay on AGS cells was 75 to 100% in each case.
